Measured values as given in paper PMC5671735, “The Effect of CM082, an Oral Tyrosine Kinase Inhibitor, on Experimental Choroidal Neovascularization in Rats” (Journal of Ophthalmology, 2017).
Several values for one entry are separate records, joined by “and”; a condition that tells them apart may be missing. Equal values may be shown once.

How the values were obtained:
[1] = LC-MS/MS concentrations of CM082 and its metabolites in plasma and ocular tissues after oral CM082; type: in vivo, Brown Norway (BN) rats
Method: (§1) To assess the CM082 distribution and the inhibitory effects of CM082 on CNV development, the 70 rats were randomly divided into 2 groups: 10 rats for evaluating the CNV rat model and to detect the distribution of CM082 and its metabolites and 60 rats for assessing the effects of CM082 on the experimental CNV. CM082 was administered orally at dose of 10 mg/kg/d or 30 mg/kg/d, while the vehicle ([…]) was used as a negative control.
Liquid chromatography-tandem mass spectrometry (LC-MS/MS) was employed to detect the concentrations of CM082 and its metabolites (X-297 (C22H24FN5O3) and X-471 (C23H28FN5O4)) in the plasma and ocular tissues. An API-4000 triple-quadrupole mass spectrometer (AB Sciex, Framingham, MA, USA) coupled with a Shimadzu liquid chromatography system (Shimadzu Cooperation, Kyoto, Japan) was used for the analysis. CM082, its metabolites, and tolbutamide were dissolved in DMSO to generate 1.0 mg/ml stock solutions stored at 4°C. A total of 200 μl of the tolbutamide stock solution was dissolved in acetonitrile to produce internal-standard working solutions. The plasma and ocular tissue samples were analyzed along with the standard and quality-control samples. The data were analyzed with Analyst 1.6.1 (AB Sciex, Framingham, MA, USA).
Ten BN rats were photocoagulated in the oculus dexter (OD) to build the CNV rat model. Histological examination was performed at day 21, while FFA was conducted at days 14 and 21 to ensure that the CNV model was established successfully and to provide evidence that neovascularization was induced (Figures 1(a), 1(b), and 1(c)). After modeling CNV successfully, to investigate whether CM082 and its metabolites (X-297 and X-471) can reach the retina effectively, the rest of the nine rats were orally treated with CM082 at 10 mg/kg/d for 9 days, starting from day 22. […] Two days after FFA, the rats were sacrificed, and we determined the concentrations of CM082 in the plasma (ng/ml) and the ocular tissues (ng/g) 2 h after CM082 treatment. The concentrations of CM082 in the plasma, the oculus sinister (OS), and the OD were 196.87 ± 24.38 ng/ml, 172.74 ± 20.83 ng/g, and 172.97 ± 18.33 ng/g, respectively. The corresponding concentrations of X-297 were 34.42 ± 3.86 ng/ml, 31.28 ± 4.00 ng/g, and 31.11 ± 3.56 ng/g, while those of X-471 were 32.04 ± 4.57 ng/ml, 16.68 ± 2.18 ng/g, and 15.82 ± 1.85 ng/g.

[2] = test system: laser-induced CNV rat model; experiment: CNV area in RPE-choroid-sclera flat mounts after FITC-dextran perfusion; type: in vivo, Brown Norway (BN) rats
Method: (§2) Laser photocoagulation-induced CNV was established as previously described. Preoperative preparation included general anesthesia, which was induced with an intraperitoneal injection of 1% pentobarbital sodium (40 mg/kg; Sigma-Aldrich, St. Louis, MO, USA). The rats' pupils were dilated using 0.5% tropicamide and 0.5% phenylephrine (Mydrin-P, Santen Pharmaceutical Co., Osaka, Japan). Surface anesthesia was induced with 0.5% Alcaine (Alcon (China) Ophthalmic Product Co., Beijing, China). Bruch's membrane of the right eye was injured using the following laser parameters: 532 nm wavelength, 360 mW intensity, 0.1 s duration, and 50 μm spot size. Eight to ten laser spots were applied to the major retinal vessels at approximately the same distance to the optic disc. A laser-induced cavitation bubble or slight hemorrhage indicated a rupture in Bruch's membrane. Fundus photography was taken immediately after laser photocoagulation to check for fundus hemorrhage.
To assess the inhibitory effects of CM082 on CNV development, the photocoagulated rats were randomly divided into 2 groups: (1) a CM082-treated group (n = 9) and (2) a vehicle-treated group (n = 9). CM082 (30 mg/kg/d or 5 ml/kg/d) or vehicle (5 ml/kg/d) was administered beginning on the 7th day after laser injury. On the 7th, 14th, or 21st day, 3 rats from each group were anesthetized, and the left ventricle of the heart was perfused with 2 ml of PBS containing 50 mg of fluorescein isothiocyanate- (FITC-) dextran (2 × 10^6 average molecular weight; Sigma-Aldrich). The enucleated eyes were fixed in 4% paraformaldehyde for 1 h. […] The CNV area was measured by ImageJ software (National Institutes of Health, Bethesda, MD, USA).
To further confirm the reverse effect of CM082 at a dose of 30 mg/kg/d on the CNV area, we prepared RPE-choroid-sclera by perfusion with FITC-dextran. […] In addition to comparing the CM082-treated group to the vehicle-treated group, we analyzed the CNV area in the CM082-treated group at different time points.

[3] = test system: oxidative-induced retinopathy; conditions: CM082-treated group compared to control group; no reference given; cited from earlier work
[4] = test system: laser-induced CNV rat model; experiment: CNV histology (HE staining); type: in vivo, Brown Norway (BN) rats
Method: as §2
The rats were euthanized after the FFA examination on day 14 or 21 after laser injury, and a histological examination was performed on 4 rats per group at each time point. The animals were enucleated, and the eyes were fixed in paraformaldehyde for 24 h (the eyelashes were also removed). After fixation, the eyes were embedded in paraffin and serially sectioned at 5 μm. […]

[5] = test system: laser-induced CNV rat model; experiment: Fundus fluorescence angiography (FFA) of fluorescein leakage in laser-induced CNV; type: in vivo, Brown Norway (BN) rats
Method: as §2, §1
The preoperative preparations were the same as those used to establish the CNV model. Approximately 0.2 ml of 10% sodium fluorescein (Alcon Japan, Tokyo, Japan) was injected intraperitoneally, and the leakage of fluorescein from the laser lesions was monitored dynamically for up to 15 min. The images were obtained using confocal scanning laser ophthalmoscopy (Spectralis, Heidelberg Engineering Inc., Heidelberg, Germany) and analyzed using ImageJ software (National Institutes of Health, Bethesda, MD, USA). The signal intensities (brightness of the CNV lesions) defined the degree of leakage. As a reference, the intensity of the capillaries in the normal regions was defined as 0, whereas the intensity at the major branch of the retinal vein was defined as 1.
To determine whether CM082 inhibited CNV progression, 60 BN rats were divided into 4 groups and randomized by weight, with 10 rats receiving CM082 at 10 mg/kg/d, 10 receiving CM082 at 30 mg/kg/d, 20 receiving vehicle treatment, and 20 undergoing the RPE-choroid-sclera preparation. […] The CNV analysis was performed on day 14 or 21 after laser photocoagulation using FFA, histological examinations, and immunohistochemistry.

[6] = type: in vivo; conditions: oral CM082 10 or 30 mg/kg/d
Text: […] BN rats were used in this study.

[7] = test system: phosphorylated VEGFR-2 (p-VEGFR-2); experiment: Immunohistochemistry of phosphorylated VEGFR-2 in CNV eyes; type: in vivo, Brown Norway (BN) rats; conditions: CM082 30 mg/kg oral, 14 and 21 days after laser injury, vs vehicle
Method: The rats were euthanized after the FFA examination on day 14 or 21 after laser injury, and a histological examination was performed on 4 rats per group at each time point. The animals were enucleated, and the eyes were fixed in paraformaldehyde for 24 h (the eyelashes were also removed). After fixation, the eyes were embedded in paraffin and serially sectioned at 5 μm. Routine hematoxylin-eosin (HE) staining was performed on selected slides, and the serial sections were examined using a light microscope. Immunohistochemical staining was performed on the histological sections from the CM082-treated and vehicle-treated groups 14 and 21 days after laser administration. Routine immunolocalization procedures were used to dewax and rehydrate the slides. The slides were incubated with 3% hydrogen peroxidase for 25 min and washed in phosphate-buffered saline (PBS) for 5 min. The slides were then blocked in goat serum for 15 min. Next, the sections were incubated with a phosphorylated anti-VEGFR-2 antibody (Nanjing Bioworld Biotech Co., Jiangsu, China) overnight at 4°C, followed by incubation with Goat Anti-Rabbit/Rat IgG antibody (Dako Denmark A/S, Denmark) for 30 min. The sections were subsequently incubated with horseradish peroxidase-conjugated streptavidin (Thermo Fisher Scientific China, Shanghai, China) for 30 min and then counterstained with hematoxylin for 2 min. […]

[8] = test system: CNV model produced by subretinal injection of Matrigel; conditions: no reference given; cited from earlier work

Question: Which “distribution within the ocular tissues” value ([1]; 2 h after CM082 administration, oral 10 mg/kg/d) does the source give for `Cc1[nH]c(/C=C2\C(=O)Nc3ccc(F)cc32)c(C)c1C(=O)N[C@H]1CCN(C(=O)N(C)C)C1` [CM082] here?
Answer: highest in the retina-sclera

Question: What about the “concentration in the oculus sinister (OS)” value ([1]; CM082 oral 10 mg/kg/d for 9 days, 2 h after CM082 treatment, n = 9, eye without laser injury) of the same compound?
Answer: 172.74 ± 20.83 ng/g

Question: And the “concentration in the oculus dexter (OD)” value ([1]; CM082 oral 10 mg/kg/d for 9 days, 2 h after CM082 treatment, n = 9, photocoagulated eye)?
Answer: 172.97 ± 18.33 ng/g

Question: And the “concentration in the plasma” value ([1]; CM082 oral 10 mg/kg/d for 9 days, 2 h after CM082 treatment, n = 9, 10 mg/kg/day)?
Answer: 196.87 ± 73.13 ng/mL and 196.87 ± 24.38 ng/mL

Question: And the “total concentration in the eyes” value ([1]; oral CM082, abstract value)?
Answer: 172.86 ± 57.11 ng/g

Question: What about the “area of the CNV lesions” value ([2]; 30 mg/kg/d group, 7 days after laser photocoagulation, before dosing (baseline), vehicle 4.84 ± 0.72) of the same compound?
Answer: 4.45 ± 0.90 μm^2 × 10^4

Question: And the “area of the CNV lesions” value ([2]; CM082 30 mg/kg/d oral from day 7, 14 days after laser injury, vehicle 9.60 ± 1.68)?
Answer: 1.48 ± 0.24 μm^2 × 10^4

Question: What about the “area of the CNV lesions” value ([2]; CM082 30 mg/kg/d oral from day 7, 21 days after laser injury, vehicle 19.61) of the same compound?
Answer: 1.03 ± 0.27 μm^2 × 10^4

Question: And the inhibition rate [3]?
Answer: 71.1%

Question: What about the “CNV lesion size by histology (HE)” value ([4]; CM082 10 mg/kg/d oral, day 21, vs vehicle) of the same compound?
Answer: smaller

Question: What about the “edema, depigmentation, and CNV areas by histology (HE)” value ([4]; CM082 30 mg/kg/d oral, 14 and 21 days after laser photocoagulation, vs vehicle) of the same compound?
Answer: significantly decreased

Question: And the “FFA leakage signal intensity” value ([5]; 10 mg/kg/d group, day 7 after laser injury, before CM082 administration (baseline), scale 0 = capillaries, 1 = retinal vein, vehicle 0.81 ± 0.03)?
Answer: 0.78 ± 0.04

Question: And the “FFA leakage signal intensity” value ([5]; 30 mg/kg/d group, day 7 after photocoagulation, before dosing (baseline), vehicle 0.81 ± 0.02, p > 0.05)?
Answer: 0.77 ± 0.04

Question: And the “FFA leakage signal intensity” value ([5]; CM082 10 mg/kg/d oral from day 7, day 21 after laser injury (14 days after dosing), vehicle 0.82 ± 0.03, p < 0.01)?
Answer: 0.66 ± 0.05

Question: And the “FFA fluorescein leakage vs days 14 and 21” value ([5]; CM082 10 mg/kg/d oral started day 22 after laser, FFA after 7 days of administration (day 28), p > 0.05)?
Answer: no significant reduction in fluorescein leakage

Question: And the “FFA leakage signal intensity” value ([5]; CM082 30 mg/kg/d oral from day 7, day 14, vehicle 0.83 ± 0.03, p < 0.001)?
Answer: 0.42 ± 0.03

Question: And the “FFA leakage signal intensity” value ([5]; CM082 30 mg/kg/d oral from day 7, day 21, vehicle 0.86 ± 0.02, p < 0.001)?
Answer: 0.35 ± 0.05

Question: And the tolerability during treatment [6]?
Answer: no behavioral change, death, or body weight loss

Question: And the p-VEGFR-2 immunostaining [7]?
Answer: reduced the aggregation of p-VEGFR-2 in the RPE and OPL

Question: What about the “areas of CNV lesions” value [8] of the same compound?
Answer: reduced the areas of CNV lesions
